Results published in ChEMBL document CHEMBL3745643, “Recent Advances in the Discovery of Norovirus Therapeutics” (J Med Chem, 2015).
Each block holds one compound with its values, some of them ahead of it. Peptide text beside a SMILES is read from it. * marks the point of attachment. Pyrrolidide = C1CCN(*)C1; Cbz = O=C(OCc1ccccc1)*

Tests used:
[1] = Inhibition of Norovirus RNA dependent RNA polymerase by spectrophotometry
Norovirus [2] = test: Antiviral activity against Norovirus infected in HuH7 cells assessed as decrease in viral RNA level after 72 hrs by qRT-PCR analysis; type: functional, cell-based; details: Huh-7, 72 h
[3] = Inhibition of Norovirus 3C-like protease by FRET assay
Norovirus [4] = test: Antiviral activity against Norovirus infected in HG23 cells assessed as decrease in viral RNA level by qRT-PCR analysis; type: functional, cell-based
[5] = Inhibition of recombinant His-tagged Norovirus 3C-like protease for 45 mins followed by addition of 30 uM EDANS-EPDFHLQGPEDLAK-Dabcyl substrate by FRET assay

EC50 [1]: 28 nM
SMILES: Cc1ccc(C(=O)Nc2ccc(S(=O)(=O)O)c3cccc(S(=O)(=O)O)c23)cc1NC(=O)c1cccc(NC(=O)Nc2cccc(C(=O)Nc3cc(C(=O)Nc4ccc(S(=O)(=O)O)c5cccc(S(=O)(=O)O)c45)ccc3C)c2)c1

EC50 [1]: 27 nM
SMILES: Cc1ccc(C(=O)Nc2ccc(S(=O)(=O)O)c3cc(S(=O)(=O)O)cc(S(=O)(=O)O)c23)cc1NC(=O)c1cccc(NC(=O)Nc2cccc(C(=O)Nc3cc(C(=O)Nc4ccc(S(=O)(=O)O)c5cc(S(=O)(=O)O)cc(S(=O)(=O)O)c45)ccc3C)c2)c1 [SURAMIN HEXASODIUM]

Second part, the compound before the results:

SMILES: Cc1nc(-c2ccccc2)sc1C(=O)Nc1sc2c(c1C#N)CCC2
EC50 (Norovirus [2]): 30100 nM

SMILES: CCOC(=O)/C=C/[C@H](C[C@@H]1CCNC1=O)NC(=O)[C@@H](CC(=O)[C@@H](NC(=O)c1cc(C)on1)C(C)C)Cc1ccc(F)cc1 [RUPINTRIVIR]
EC50 [3]: 23 nM

SMILES: C[C@@]1(O)[C@H](O)[C@@H](CO)O[C@H]1n1ccc(N)nc1=O
EC50 (Norovirus [4]): 18000 nM

SMILES: CC(C)C[C@H](NC(=O)OCc1ccccc1)C(=O)N[C@@H](Cc1ccccc1)C(=O)N[C@H](C=O)CCC(=O)N1CCCC1 (Cbz-Leu-Phe-Glu(Pyrrolidide)-aldehyde)
EC50 [5]: 75 nM
